No end group written: not given here.

The first experiment concerns the target HLA-A*02:01 (Homo sapiens, UniProt P04439, D140Y/D185E/D98H/E176V/E277Q/G131W/G231S/I119V/I121R/I166T/I218V/L300P/L318F/N151K/N90K/P208A/P217A/Q86G/Q94H/R138H/R169H/T345S). Briefly: MHC-I stabilization assay, TAP-deficient T2 cells. In kind it is binding.
Conditions: not given
In general, EC50 refers to the concentration that produces a half-maximal response. Regarding LVVVGARGV, the 50% effective concentration (EC50) was 429 µM.
In turn, KLVVVGASGV came in with an EC50 of 72 µM.
Still for that read-out and setting: next, KLVVVGARGV: 151 µM; YLVVGARGV: 15.6 µM; `CC(C)C[C@H](NC(=O)[C@@H](N)CCCCN)C(=O)N[C@H](C(=O)N[C@H](C(=O)N[C@H](C(=O)NCC(=O)N[C@@H](C)C(=O)N[C@@H](C)C(=O)NCC(=O)N[C@H](C(=O)O)C(C)C)C(C)C)C(C)C)C(C)C`: 50.2 µM.
LVVVGASGV had a 50% effective concentration (EC50) of 581 µM.
As for YLVVGASGV, a half-maximal response (EC50) required 21.2 µM.

The experiment is the same for the next values; noted with them: Table 1; T2 cells, HLA-A*02:01 stabilization, serum-free RPMI, 4 hours, 37°C, peptide from 100 µM in at least 8 serial dilution steps, flow cytometry MFI (BB7.2); half-maximal MFI; analyzed three times, mean; read-out: EC50 (µM) Binding assay.
As for YLVVVGACGV, the concentration for a half-maximal effect (EC50) was 95.5 µM.
The same measure, in the same setting: next, YLVVGAVGV: 22.9 µM; LVVVGACGV: 619 µM.
In the case of LLVVGAVGV, the EC50 amounted to 25.6 µM.
Still for that read-out and setting: next, YLVVVGASGV: 10.7 µM; YVVVGASGV: 207 µM; YLVVVGADGV: 5.68 µM.
On to YVVVGADGV, for which the concentration giving a half-maximal response (EC50) was 199 µM.
On the same count and under the same terms, next, LLVVGADGV: 83.4 µM.
The same measure, in the same setting: next, YVVVGAAGV: 117 µM; LLVVGARGV: 23.7 µM; YLVVGACGV: 26.1 µM.
On the same count and under the same terms, next, LLVVGASGV: 90.6 µM.
As to LLVVGACGV, the EC50 turned out to be 73.5 µM.
On to YVVVGAVGV, for which the half-maximal effective concentration (EC50) came to 28.3 µM.
Same read-out and setting: next, YLVVVGAAGV: 27.7 µM; LVVVGADGV: 453 µM.
The same measure, in the same setting: in the case of LVVVGAAGV it was 191 µM.
On the same count and under the same terms, next, YLVVGADGV: 13.4 µM; YLVVGAAGV: 16.4 µM.
Regarding YLVVVGAVGV, the concentration for a half-maximal effect (EC50) was 15.5 µM.
Same read-out and setting: in the case of YVVVGARGV it was 51.6 µM; in that of LLVVGAAGV, 17.5 µM.
Still for that read-out and setting: next, YVVVGACGV: 138 µM.

The next experiment addresses HLA-A*03:01 (Homo sapiens, UniProt P04439).
Assay: not given
It counts as binding.
Conditions: not given
As to VVGAAGVGK, the EC50 stood at 277 µM.
The same measure, in the same setting: in the case of VVVGAAGVGK it was 94 µM; in that of VVVGARGVGK, 69.7 µM; in that of `CC[C@H](C)[C@H](N)C(=O)N[C@@H](CC(C)C)C(=O)N[C@@H](CCCNC(=N)N)C(=O)NCC(=O)N[C@@H](CO)C(=O)N[C@H](C(=O)N[C@@H](C)C(=O)N[C@@H](Cc1c[nH]cn1)C(=O)N[C@@H](CCCCN)C(=O)O)C(C)C` [Flu-NP 265-273, reference compound], 6.33 µM.

Another experiment has as its target HLA-A*11:01 (Homo sapiens, UniProt P04439, A114D/D185E/E176A/F33Y/L180Q/S129P/T187R). The experiment in a line: Cell-based competitive MHC-I-binding assay, CJO-A lymphoblastoid cells.
Conditions: not given
`CC[C@H](C)[C@H](NC(=O)[C@@H](N)CO)C(=O)N[C@H](C(=O)N1CCC[C@H]1C(=O)N[C@@H](CO)C(=O)NCC(=O)N1CCC[C@H]1C(=O)N[C@@H](CC(C)C)C(=O)N[C@@H](CCCCN)C(=O)O)[C@@H](C)CC` [Flu-MP 13-21, reference compound] returned an IC50 of 1.44e-06 M.
The same measure, in the same setting: in the case of VVGAAGVGK it was 1.12e-05 M; in that of VVVGAAGVGK, 7.03e-06 M.
The same measure, in the same setting: next, VVVGARGVGK: 4.61e-05 M.

Still in this experiment, the particulars now being: Table S2; […], competition with 500 nM FITC-labelled KVFPK(FITC)ALINK, serum-free RPMI, 4 hours, 37°C, peptide from 100 µM, flow cytometry; analyzed three times, mean; read-out: EC/IC50 (M) Binding assay: IC50, HLA-A*11:01.
On to `CC(C)[C@H](N)C(=O)N[C@H](C(=O)N[C@H](C(=O)NCC(=O)N[C@@H](C)C(=O)N[C@@H](CO)C(=O)NCC(=O)N[C@H](C(=O)NCC(=O)N[C@@H](CCCCN)C(=O)O)C(C)C)C(C)C)C(C)C`, for which the IC50 was 1.02e-05 M.
Consider VVGARGVGK, for which the IC50 worked out at 0.000157 M.
On to `CC(C)[C@H](N)C(=O)N[C@H](C(=O)NCC(=O)N[C@@H](C)C(=O)N[C@@H](CO)C(=O)NCC(=O)N[C@H](C(=O)NCC(=O)N[C@@H](CCCCN)C(=O)O)C(C)C)C(C)C`, for which the IC50 is 1.27e-05 M.

A further experiment has as its system transgenic humanized HLA-A2/DR1 mice. Briefly: Immunization of transgenic humanized HLA-A2/DR1 mice, ex vivo splenocyte stimulation. It counts as in vivo, mouse. The settings on record: 100 μg peptide s.c. days 0, 14, 21 with 25 μg Poly I:C and 10 μg Pan-DR peptide; splenocytes one week after third injection restimulated overnight with 10 μg/mL peptide, intracellular IFN-γ; 5 mice.
For “MTEYKL L VVGA V GV GKSALTIQLIQNHFVDE [31-mer G12V peptide]”, the “CD8+ T cells in the spleen reacting to the minimal L2-9-mer peptide” value is on record as “about 8%”.

Still in this experiment, the particulars now being: same immunization; HLA-A*02:01-positive/G12V-positive CFPAC-1, overnight incubation, intracellular IFN-γ.
With “MTEYKL L VVGA V GV GKSALTIQLIQNHFVDE [31-mer G12V peptide]”, the “Recognition of CFPAC-1 cells by CD8+ T cells of immunized mice” value is “recognized”.

The experiment is the same for the next values; noted with them: same immunization; ex vivo restimulation with WT-9-mer.
For “MTEYKL L VVGA V GV GKSALTIQLIQNHFVDE [31-mer G12V peptide]”, the “Recognition of the wild-type peptide by CD8+ T cells of immunized mice” value is on record as “did not recognize”.

The same experiment, now with this note: same immunization; ex vivo restimulation with original 9-mer.
“MTEYKL L VVGA V GV GKSALTIQLIQNHFVDE [31-mer G12V peptide]”: the “Share of L2-9-mer-reactive CD8+ T cells that also reacted to the original 9-mer epitope” value is listed as “half”.
